Assay results published in paper PMC6468747 (Cancers, 2019).
Like-named read-outs stand apart in the source and are kept apart here.

Tests used:
[1] = system: panel of 6 human TNBC cell lines; experiment: MTT cell growth assay, summary over the panel; type: cell-based; settings: Homo sapiens, 168 h, 7 days
Experimental: Figure 3 In vitro characterization, pharmacokinetics and toxicity profile of VNLG-152R and its two enantiomers. (A) HPLC chromatograms racemic VNLG-152R (left panel) and the resolved enantiomers VNLG-152E1 and VNLG-152E2 (right panel). The conditions of HPLC procedure are presented in Supplementary Materials. (B) Table summarizing GI50 values (µM) each cell line treated with VNLG-152R and its enantiomers. TNBC cell subtypes were treated with listed compound (0.1 nmol/L–100 µmol/L) for 7 days and the GI50 values for the anti-proliferative effects of the compounds were determined from dose response curves (by a nonlinear regression analysis using Graph Pad Prism). Data represents the results from six independent experiments for each cell line. (C) Plasma concentration versus time profile after intravenous (IV, 2 mg/kg each, top panel) or oral (PO, 20 mg/kg each, bottom panel) of VNLG-152R (red), VNLG-152E1 (purple) and VNLG-152E2 (blue) to female CD1 mice. Values represent the mean plasma concentrations from three mice per time point. (D) Table of the pharmacokinetic parameters of various compounds after IV and PO dosing. AUC = area under the curve, T1/2 = elimination half-life, Cmax = maximum plasma concentration, F (%) = oral bioavailability. (E) Effects of VNLG-152R, VNLG-152E1 and VNLG-152E2 on body weight and clinical observations at chronic dose termination of study. Three different doses, i.e., 10, 25, and 50 mg/kg/day (formulated in 40% β-cyclodextrin in saline) of each compound were administered daily by oral gavage for 14 days. Each group consisted of three mice. Loss in body weight, a clinical sign of toxicity was observed during the 14 days of dosing and the maximum tolerated dose (MTD) was estimated following established procedures. Changes in body weight were scored on a scale of 0–4 as follows as described under methods. […]

[2] = system: EMT-related proteins; experiment: Western blot of EMT-related proteins in MDA-MB-231 and MDA-MB-468 cells; type: cell-based, human; settings: 24 h
Experimental: (§1) MDA-MB-231, MDA-MB-468, MDA-MB-436, MDA-MB-453, HCC-1806, and MFM-223 cells were purchased from American Type Culture Collection (ATCC, Manassas, VA, USA), and authenticated at the Biopolymer/Genomics Core Facility, University of Maryland Baltimore. Cells were tested for mycoplasma contamination at the University of Maryland Marlene and Stewart Greenebaum Cancer Center (UMGCC) Translational Shared Service. Cells were cultured in the recommended media supplemented with 10% FBS and plated 1 day prior to treatment. Cells were treated with the indicated dose and time in the figure at 37 °C in 5% CO2. Protein lysates were harvested in RIPA lysis buffer (Sigma). Western blotting was done as described previously with antibodies described above.

[3] = system: MDA-MB-231 cells; experiment: Head-to-head MTT antiproliferative assay, 6-day exposure; type: cell-based, human
Experimental: (§2) Figure 2 VNLG-152R inhibits mTORC1 signaling and the production of pro-inflammatory cytokines. (A) MDA-MB-231 and MDA-MB-468 cells were treated with the indicated concentrations of VNLG-152R for 72 h. Cell lysates were analyzed by immunoblotting with the indicated antibodies. (B) Head-to-head antiproliferative effects of VNLG-152R and eFT508 on MDA-MB-231 and MDA-MB-468 cells. The dose-response curves were generated from MTT assays after 6-day exposure to different concentrations of the compounds. Each point is a mean of replicates from three independent experiments. (C–E) MDA-MB-231 cell were treated with the indicated concentration of VNLG-152R or eFT508 for 72 h. Cell supernatants were collected, and the indicated cytokines were quantitated by Multiplex Luminex assay.
(§3) Cell growth inhibition assay was performed as described previously. For cell growth experiment, cells were treated with the VNLG-152R, VNLG-152E1 or VNLG-15E2 for 7 days. MTT assay was performed at the end of the experiment. Results represent the mean ± standard deviation of three independent experiments.

[4] = system: MDA-MB-468 cells; experiment: as above; type: cell-based, human
Experimental: as §2, §3

[5] = system: MDA-MB-231 cells; experiment: MTT cell viability with/without siMnk1 knockdown; type: cell-based, human; settings: 5 μM
Experimental: Small interfering RNA targeting the Mnk1 (siMnk1) gene and corresponding scramble siRNA sequence (siControl) were purchased from Ambion ((Waltham, MA, USA). Briefly, 3 × 10^5 MDA-MB-231 cells were seeded into 6 cm cell culture dish (Corning®) and incubated for 24 h in for normal culture medium. Subsequently, cells were subjected to transfection with 100 nM of siMnk1 or siControl using the RNAi Human/Mouse Starter Kit (Qiagen, (Qiagen, Hilden, Germany) following the manufacturer’s instructions for 48 h. For cell growth assay experiments, transfection complex was removed after 48 h, cells were washed twice with phosphate-buffered saline and replaced with normal growth medium. Twenty-four hour later, 5 μM of VNLG-152R was added to the growth media and harvested after 24 h. Non-transfected cells were also treated with 5 μM of VNLG-152R for 24 h. Protein silencing was confirmed by immunoblot analysis.

[6] = system: Br-001 tumor xenografts; experiment: Patient-derived TNBC xenograft (PDX), IP; type: in vivo, mice; settings: 10 mg/kg/day IP
Experimental: Female NSG (NOD.Cg-PrkdcscidIl2rgtm1Wjl/SzJ) mice (Jackson Laboratory) 5–6 weeks of age were housed under complete aseptic conditions, fed autoclaved pellets and sterile water ad libitum. Primary triple negative breast cancer tissue from a patient in University of Maryland Medical Center ([…]) was excised during surgery, de-identified and then implanted into the mammary fat pad of female NSG mice. After expansion and viable freeze back, breast PDX (Br-001) was grown in three mice as a subcutaneous tumor. When tumors reached approximately 600–800 mm^3, mice were euthanized, tumors excised aseptically and cut into 3 mm × 3 mm pieces and re-implanted subcutaneously in female NSG mice. The established xenografts were subsequently passaged from mouse to mouse to expand xenograft numbers. […] Tumors were measured and processed as described for the MDA-MB-231 xenograft model.

[7] = system: mTORC1 signaling; experiment: Western blot of mTORC1 signaling in MDA-MB-231 and MDA-MB-468 cells; type: cell-based, human; settings: 72 h
Experimental: as §1

CC1=C(/C=C/C(C)=C/C=C/C(C)=C/C(=O)Nc2ccc(F)cc2)C(C)(C)CCC1n1ccnc1 (racemic) [VNLG-152R, 4-(±)-(1H-imidazol-1-yl)-N-(4-fluorophenyl)-(E)-retinamide]
GI50 ([1]; mean over 6 TNBC cell lines, read-out: average GI50): 0.97 µM
GI50 ([1]; range over 6 TNBC cell lines, read-out: range of GI50): 0.62 to 1.86 µM
expression of N-Cadherin, β-catenin, MMP-2, MMP-9, Snail, Slug, Vimentin and TCF/ZEB-1 [2]: concentration-dependent decreases
GI50 [3]: 0.89 µM
fold difference of GI50 (eFT508 vs VNLG-152R) [3]: 8 fold
GI50 ([3]; Homo sapiens, MDA-MB-231, 144 h): 0.891 µM
GI50 [4]: 0.5 µM
fold difference of GI50 (eFT508 vs VNLG-152R) [4]: 105 fold
GI50 ([4]; Homo sapiens, MDA-MB-468, 144 h): 0.501 µM
reduction in cell viability ([5]; non-transfected MDA-MB-231 cells): ~ 75%
cell viability in cells harboring Mnk1 knockdown ([5]; siMnk1-transfected MDA-MB-231 cells): did not show any significant decrease in cell viability
changes in body weights [6]: No significant changes in body weights were observed
tumor growth inhibition (TGI) ([6]; 5 days a week, 17 days): 73.3%
depletion of p-mTOR (Ser2448), p4E-BP1, peIF4E and p-p70 S6K [7]: strong dose-dependent depletion
